Reference: patent US20230123334A1, “AMINO LIPID COMPOUND, PREPARATION METHOD THEREFOR, AND APPLICATION THEREOF” (SHENZHEN SHENXIN BIOTECHNOLOGY CO., LTD., priority 2020, published 2023)

Legend:
[1] = tested on: HEK293 cells; assay: Preliminary screening as DNA vectors, GFP transfection of HEK293 cells; format: cell-based; details: HEK293 cells; lipid/DOPE liposome with 75 ng plasmid DNA (psin-EGFP-IRES-Puro); number of cells expressing GFP divided by total number of nuclei (Hoechst)
Outline: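 First, amino lipid and DOPE were vortexed in sodium acetate buffer (pH 5.6) to form liposomes. Next, these were held with 75 ng EGFP plasmid at room temperature for 30 min. Finally, HEK293 cells were added, cultured at 37° C., Hoechst-stained, and GFP+/total nuclei scored by imaging.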

[2] = tested on: HEK293 cells; assay: Preliminary screening as mRNA vectors, EGFP mRNA transfection of HEK293 cells; format: cell-based; details: HEK293 cells, 96-well plates, EGFP mRNA 50 ng per well; percentage of GFP fluorescent cells relative to total number of cells (Hoechst)
Outline: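 Screening format: EGFP mRNA transfection (50 ng/well) into HEK293 in 10% FBS-supplemented DMEM. Percent green fluorescent cells, normalised to Hoechst nuclear count, gave the value; Lipofectamine2000 was the reference transfectant.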

SMILES	Absolute DNA transfection efficiency in HEK293 cells [1]	Absolute mRNA transfection efficiency in HEK293 cells [2]
CCCCCCCCCCCCCCCSc1nc(NCCN2CCCCC2)nc(SCCCCCCCCCCCCCCC)n1 [Compound S15S15D4]	1.5%	1.5%
CCCCCCCCCCCCCCCSc1nc(NCCN2CCN(C)CC2)nc(SCCCCCCCCCCCCCCC)n1 [Compound S15S15D5]	0.3%	0.3%
CCCCCCCCCCCCCCCSc1nc(NCCCN(C)C)nc(SCCCCCCCCCCCCCCC)n1 [Compound S15S15D6]	0.4%	0.9%
CCCCCCCCCCCCCCCSc1nc(NCCN(CC)CC)nc(SCCCCCCCCCCCCCCC)n1 [Compound S15S15D7]	0.6%	0.5%
CCCCCCCCCCCCCCCSc1nc(NCCCN2CCOCC2)nc(SCCCCCCCCCCCCCCC)n1 [Compound S15S15D8]	0.0%	0.2%
CCCCCCCCCCCCCCCSc1nc(NCCCN2CCN(C)CC2)nc(SCCCCCCCCCCCCCCC)n1 [Compound S15S15D9]	0.4%	0.5%
CCCCCCCCCCCCCCCSc1nc(NCC2CCN(C)CC2)nc(SCCCCCCCCCCCCCCC)n1 [Compound S15S15D10]	1.0%	0.3%
CCCCCCCCCCCCCCCCSc1nc(NCCN(C)C)nc(SCCCCCCCCCCCCCCC)n1 [Compound S15S16D1]	1.7%	0.7%
CCCCCCCCCCCCCCCCSc1nc(NCCN2CCOCC2)nc(SCCCCCCCCCCCCCCC)n1 [Compound S15S16D2]	0.0%	0.7%
CCCCCCCCCCCCCCCCSc1nc(NCCN2CCCC2)nc(SCCCCCCCCCCCCCCC)n1 [Compound S15S16D3]	0.1%	0.2%
CCCCCCCCCCCCCCCCSc1nc(NCCN2CCCCC2)nc(SCCCCCCCCCCCCCCC)n1 [Compound S15S16D4]	2.0%	3.2%
CCCCCCCCCCCCCCCCSc1nc(NCCN2CCN(C)CC2)nc(SCCCCCCCCCCCCCCC)n1 [Compound S15S16D5]	0.2%	0.2%
CCCCCCCCCCCCCCCCSc1nc(NCCCN(C)C)nc(SCCCCCCCCCCCCCCC)n1 [Compound S15S16D6]	0.2%	0.4%
CCCCCCCCCCCCCCCCSc1nc(NCCN(CC)CC)nc(SCCCCCCCCCCCCCCC)n1 [Compound S15S16D7]	0.6%	0.4%
CCCCCCCCCCCCCCCCSc1nc(NCCCN2CCOCC2)nc(SCCCCCCCCCCCCCCC)n1 [Compound S15S16D8]	0.0%	0.0%
CCCCCCCCCCCCCCCCSc1nc(NCCCN2CCN(C)CC2)nc(SCCCCCCCCCCCCCCC)n1 [Compound S15S16D9]	0.3%	0.5%
CCCCCCCCCCCCCCCCSc1nc(NCC2CCN(C)CC2)nc(SCCCCCCCCCCCCCCC)n1 [Compound S15S16D10]	0.6%	0.6%
CCCCCCCCCCCCCCCCCCSc1nc(NCCN(C)C)nc(SCCCCCCCCCCCCCCC)n1 [Compound S15S18D1]	0.0%	0.0%
CCCCCCCCCCCCCCCCCCSc1nc(NCCN2CCOCC2)nc(SCCCCCCCCCCCCCCC)n1 [Compound S15S18D2]	0.1%	0.5%
CCCCCCCCCCCCCCCCCCSc1nc(NCCN2CCCC2)nc(SCCCCCCCCCCCCCCC)n1 [Compound S15S18D3]	2.6%	1.9%
CCCCCCCCCCCCCCCCCCSc1nc(NCCN2CCCCC2)nc(SCCCCCCCCCCCCCCC)n1 [Compound S15S18D4]	0.3%	0.0%
CCCCCCCCCCCCCCCCCCSc1nc(NCCN2CCN(C)CC2)nc(SCCCCCCCCCCCCCCC)n1 [Compound S15S18D5]	0.3%	0.4%
CCCCCCCCCCCCCCCCCCSc1nc(NCCCN(C)C)nc(SCCCCCCCCCCCCCCC)n1 [Compound S15S18D6]	1.0%	0.0%

SMILES	Absolute DNA transfection efficiency in HEK293 cells [1]	Absolute mRNA transfection efficiency in HEK293 cells [2]
CCCCCCCCCCCCCCCCCCSc1nc(NCCN(CC)CC)nc(SCCCCCCCCCCCCCCC)n1 [Compound S15S18D7]	1.5%	9.3%
CCCCCCCCCCCCCCCCCCSc1nc(NCCCN2CCOCC2)nc(SCCCCCCCCCCCCCCC)n1 [Compound S15S18D8]	0.0%	0.5%
CCCCCCCCCCCCCCCCCCSc1nc(NCCCN2CCN(C)CC2)nc(SCCCCCCCCCCCCCCC)n1 [Compound S15S18D9]	0.3%	0.0%
CCCCCCCCCCCCCCCCCCSc1nc(NCC2CCN(C)CC2)nc(SCCCCCCCCCCCCCCC)n1 [Compound S15S18D10]	0.3%	1.8%
CCCCCCCCCCCCCCCCSc1nc(NCCN(C)C)nc(SCCCCCCCCCCCCCCCC)n1 [Compound S16S16D1]	0.6%	0.4%
CCCCCCCCCCCCCCCCSc1nc(NCCN2CCOCC2)nc(SCCCCCCCCCCCCCCCC)n1 [Compound S16S16D2]	1.1%	0.2%
CCCCCCCCCCCCCCCCSc1nc(NCCN2CCCC2)nc(SCCCCCCCCCCCCCCCC)n1 [Compound S16S16D3]	0.9%	0.8%
CCCCCCCCCCCCCCCCSc1nc(NCCN2CCCCC2)nc(SCCCCCCCCCCCCCCCC)n1 [Compound S16S16D4]	1.2%	2.2%
CCCCCCCCCCCCCCCCSc1nc(NCCN2CCN(C)CC2)nc(SCCCCCCCCCCCCCCCC)n1 [Compound S16S16D5]	0.0%	0.7%
CCCCCCCCCCCCCCCCSc1nc(NCCCN(C)C)nc(SCCCCCCCCCCCCCCCC)n1 [Compound S16S16D6]	0.5%	0.5%
CCCCCCCCCCCCCCCCSc1nc(NCCN(CC)CC)nc(SCCCCCCCCCCCCCCCC)n1 [Compound S16S16D7]	0.5%	0.0%
CCCCCCCCCCCCCCCCSc1nc(NCCCN2CCOCC2)nc(SCCCCCCCCCCCCCCCC)n1 [Compound S16S16D8]	0.0%	1.7%
CCCCCCCCCCCCCCCCSc1nc(NCCCN2CCN(C)CC2)nc(SCCCCCCCCCCCCCCCC)n1 [Compound S16S16D9]	0.5%	0.2%
CCCCCCCCCCCCCCCCSc1nc(NCC2CCN(C)CC2)nc(SCCCCCCCCCCCCCCCC)n1 [Compound S16S16D10]	0.1%	2.7%
CCCCCCCCCCCCCCCCCCSc1nc(NCCN(C)C)nc(SCCCCCCCCCCCCCCCC)n1 [Compound S16S18D1]	1.2%	2.1%
CCCCCCCCCCCCCCCCCCSc1nc(NCCN2CCOCC2)nc(SCCCCCCCCCCCCCCCC)n1 [Compound S16S18D2]	0.0%	0.0%
CCCCCCCCCCCCCCCCCCSc1nc(NCCN2CCCC2)nc(SCCCCCCCCCCCCCCCC)n1 [Compound S16S18D3]	1.9%	1.8%
CCCCCCCCCCCCCCCCCCSc1nc(NCCN2CCCCC2)nc(SCCCCCCCCCCCCCCCC)n1 [Compound S16S18D4]	0.3%	0.3%
CCCCCCCCCCCCCCCCCCSc1nc(NCCN2CCN(C)CC2)nc(SCCCCCCCCCCCCCCCC)n1 [Compound S16S18D5]	1.7%	0.3%
CCCCCCCCCCCCCCCCCCSc1nc(NCCCN(C)C)nc(SCCCCCCCCCCCCCCCC)n1 [Compound S16S18D6]	0.2%	1.8%
CCCCCCCCCCCCCCCCCCSc1nc(NCCN(CC)CC)nc(SCCCCCCCCCCCCCCCC)n1 [Compound S16S18D7]	1.0%	1.8%
CCCCCCCCCCCCCCCCCCSc1nc(NCCCN2CCOCC2)nc(SCCCCCCCCCCCCCCCC)n1 [Compound S16S18D8]	0.3%	1.9%
